Target: TYK2 (Homo sapiens, UniProt P29597)
Assay: TYK2 protein degradation in MOLT-4 cells by immunoblotting
Format: cell-based
Set-up: endogenous in cells; host or cells: MOLT-4
Conditions: MOLT-4 cells, 24 hours
Procedure: MOLT-4 cells were treated with compounds at 0.5 and 5 μM concentrations for 24 hours.
MOLT-4 cells were treated with CPD-038, CPD-039, and CPD-040 at 0.04, 0.2, 1, and 5 μM concentrations for 24 hours.
MOLT-4 or NOMO-1 cells were cultured at 37° C. with 5% CO2 in RPMI 1640 Medium supplemented with 10% fetal bovine serum. Cells were authenticated using the short tandem repeat (STR) assays. Mycoplasma test results were negative.
Cultured cells were washed with cold PBS once and lysed in cold RIPA buffer supplemented with protease inhibitors and phosphatase inhibitors (Beyotime Biotechnology). The solutions were then incubated at 4° C. for 30 minutes with gentle agitation to fully lyse cells. Cell lysates were centrifuged at 13,000 rpm for 10 minutes at 4° C. and pellets were discarded. Total protein concentrations in the lysates were determined by BCA assays (Beyotime Biotechnology). Cell lysates were mixed with Laemmli loading buffer to 1× and heated at 99° C. for 5 min. Proteins were resolved on SDS-PAGE and visualized by chemiluminescence. Images were taken by a ChemiDoc MP Imaging system (Bio-Rad). Protein bands were quantitated using the accompanied software provided by Bio-Rad.
The percentage of TYK2 protein degradation of each compound at 0.5 and 5 μM determined in MOLT-4 cells as described in Methods.

TYK2, sequence (P29597 whole entry): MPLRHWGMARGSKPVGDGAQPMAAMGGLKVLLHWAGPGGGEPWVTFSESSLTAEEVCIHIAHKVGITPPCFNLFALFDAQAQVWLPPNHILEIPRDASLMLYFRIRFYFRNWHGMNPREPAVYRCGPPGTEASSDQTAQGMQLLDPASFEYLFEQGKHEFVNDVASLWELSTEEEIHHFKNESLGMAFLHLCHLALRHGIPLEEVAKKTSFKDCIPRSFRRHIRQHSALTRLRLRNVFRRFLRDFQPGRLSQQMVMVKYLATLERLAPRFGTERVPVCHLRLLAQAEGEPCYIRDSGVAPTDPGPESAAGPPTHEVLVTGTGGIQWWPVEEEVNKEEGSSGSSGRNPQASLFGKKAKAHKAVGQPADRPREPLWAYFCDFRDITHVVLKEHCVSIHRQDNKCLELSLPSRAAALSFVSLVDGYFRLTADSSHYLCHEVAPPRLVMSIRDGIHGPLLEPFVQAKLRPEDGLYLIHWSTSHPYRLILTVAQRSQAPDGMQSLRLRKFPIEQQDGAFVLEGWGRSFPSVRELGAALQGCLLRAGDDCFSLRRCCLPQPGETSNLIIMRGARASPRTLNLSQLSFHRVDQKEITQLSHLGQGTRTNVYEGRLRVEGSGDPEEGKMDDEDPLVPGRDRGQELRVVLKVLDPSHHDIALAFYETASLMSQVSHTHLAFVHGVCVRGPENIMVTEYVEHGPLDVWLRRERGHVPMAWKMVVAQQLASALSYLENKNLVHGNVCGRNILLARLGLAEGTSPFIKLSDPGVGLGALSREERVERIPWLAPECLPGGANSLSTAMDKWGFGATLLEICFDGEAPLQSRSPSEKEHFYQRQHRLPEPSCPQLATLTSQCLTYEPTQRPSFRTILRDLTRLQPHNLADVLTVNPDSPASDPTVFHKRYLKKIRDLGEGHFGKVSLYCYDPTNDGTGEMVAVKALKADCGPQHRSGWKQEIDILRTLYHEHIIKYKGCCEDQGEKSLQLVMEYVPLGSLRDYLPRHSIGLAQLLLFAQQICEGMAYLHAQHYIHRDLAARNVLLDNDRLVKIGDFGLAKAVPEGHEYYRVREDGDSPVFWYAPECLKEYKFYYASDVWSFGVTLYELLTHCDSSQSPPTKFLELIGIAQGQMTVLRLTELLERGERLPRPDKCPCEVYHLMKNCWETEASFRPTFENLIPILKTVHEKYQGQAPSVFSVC

Compound: CNC(=O)c1nnc(NC(=O)CNC(=O)CCCCCCCCCCNC(=O)C[C@H](NC(=O)[C@@H]2C[C@@H](O)CN2C(=O)[C@@H](NC(=O)C2(F)CC2)C(C)(C)C)c2ccc(-c3scnc3C)cc2)cc1Nc1cccc(-c2ncn(C)n2)c1OC [CPD-095, 6-(2-(11-((S)-3-((2S,4R)-1-((S)-2-(1-Fluorocyclopropane-1-carboxamido)-3,3-dimethylbutanoyl)-4-hydroxypyrrolidine-2-carboxamido)-3-(4-(4-methylthiazol-5-yl)phenyl)propanamido)undecanamido)acetamido)-4-((2-methoxy-3-(1-methyl-1H-1,2,4-triazol-3-yl)phenyl)amino)-N-methylpyridazine-3-carboxamide]
- TYK2 Degradation (MOLT-4, 0.5 μM): B (B: <60% TYK2 degradation, and >20% TYK2 degradation)
- TYK2 Degradation (MOLT-4, 5 μM): A (A: ≥60% TYK2 degradation)

Compound: CNC(=O)c1nnc(NC(=O)C2CC2)cc1Nc1cccc(-c2ncn(CCNC(=O)CCOCCOCCOCCOCCOCCNc3cccc4c3C(=O)N(C3CCC(=O)NC3=O)C4=O)n2)c1OC (stereo not shown) [CPD-012, 6-(Cyclopropanecarboxamido)-4-((3-(1-(1-((2-(2,6-dioxopiperidin-3-yl)-1,3-dioxoisoindolin-4-yl)amino)-18-oxo-3,6,9,12,15-pentaoxa-19-azahenicosan-2l-yl)-1H-1,2,4-triazol-3-yl)-2-methoxyphenyl)amino)-N-methylpyridazine-3-carboxamide]
- TYK2 Degradation (0.5 μM): ≤20%

Compound: CNC(=O)c1nnc(NC(=O)CNC(=O)CCCCCCCOc2cc(-c3scnc3C)ccc2CNC(=O)[C@@H]2C[C@@H](O)CN2C(=O)[C@@H](NC(=O)C2(F)CC2)C(C)(C)C)cc1Nc1cccc(-c2ncn(C)n2)c1OC [CPD-107, 6-(2-(8-(2-(((2S,4R)-1-((S)-2-(1-Fluorocyclopropane-1-carboxamido)-3,3-dimethylbutanoyl)-4-hydroxypyrrolidine-2-carboxamido)methyl)-5-(4-methylthiazol-5-yl)phenoxy)octanamido)acetamido)-4-((2-methoxy-3-(1-methyl-1H-1,2,4-triazol-3-yl)phenyl)amino)-N-methylpyridazine-3-carboxamide]
- TYK2 Degradation (MOLT-4, 0.5 μM): C (C: ≤20% TYK2 degradation)
- TYK2 Degradation (MOLT-4, 5 μM): C (C: ≤20% TYK2 degradation)

Compound: CNC(=O)c1nnc(NC(=O)C2CC2)cc1Nc1cccc(-c2ncn(CCNC(=O)CCOCCOCCNc3cccc4c3C(=O)N(C3CCC(=O)NC3=O)C4=O)n2)c1OC (stereo not shown) [CPD-009, 6-(Cyclopropanecarboxamido)-4-((3-(1-(2-(3-(2-(2-((2-(2,6-dioxopiperidin-3-yl)-1,3-dioxoisoindolin-4-yl)amino)ethoxy)ethoxy)propanamido)ethyl)-1H-1,2,4-triazol-3-yl)-2-methoxyphenyl)amino)-N-methylpyridazine-3-carboxamide]
- TYK2 Degradation (0.5 μM): ≤20%

Compound: CNC(=O)c1nnc(NC(=O)C2CC2)cc1Nc1cccc(-c2ncn(CCNC(=O)CNc3cccc4c3C(=O)N(C3CCC(=O)NC3=O)C4=O)n2)c1OC (stereo not shown) [CPD-001, 6-(Cyclopropanecarboxamido)-4-((3-(1-(2-(2-((2-(2,6-dioxopiperidin-3-yl)-1,3-dioxoisoindolin-4-yl)amino)acetamido)ethyl)-1H-1,2,4-triazol-3-yl)-2-methoxyphenyl)amino)-N-methylpyridazine-3-carboxamide]
- TYK2 Degradation (0.5 μM): ≤20%

Compound: CNC(=O)c1nnc(NC(=O)CNC(=O)CCCC(=O)N[C@H](C(=O)N2C[C@H](O)C[C@H]2C(=O)NCc2ccc(-c3scnc3C)cc2)C(C)(C)C)cc1Nc1cccc(-c2ncn(C)n2)c1OC [CPD-035, N^1—((S)-1-((2S,4R)-4-Hydroxy-2-((4-(4-methylthiazol-5-yl)benzyl)carbamoyl)pyrrolidin-1-yl)-3,3-dimethyl-1-oxobutan-2-yl)-N^5-(2-((5-((2-methoxy-3-(1-methyl-1H-1,2,4-triazol-3-yl)phenyl)amino)-6-(methylcarbamoyl)pyridazin-3-yl)amino)-2-oxoethyl)glutaramide]
- TYK2 Degradation (0.5 μM): ≤20%
- TYK2 Degradation (5 μM): ≤20%

Compound: CNC(=O)c1nnc(NC(=O)CNC(=O)CCCCCCCCCOc2cc(-c3scnc3C)ccc2CNC(=O)[C@@H]2C[C@@H](O)CN2C(=O)[C@@H](NC(=O)C2(F)CC2)C(C)(C)C)cc1Nc1cccc(-c2ncn(C)n2)c1OC [CPD-109, 6-(2-(10-(2-(((2S,4R)-1-((S)-2-(1-Fluorocyclopropane-1-carboxamido)-3,3-dimethylbutanoyl)-4-hydroxypyrrolidine-2-carboxamido)methyl)-5-(4-methylthiazol-5-yl)phenoxy)decanamido)acetamido)-4-((2-methoxy-3-(1-methyl-JH-1,2,4-triazol-3-yl)phenyl)amino)-N-methylpyridazine-3-carboxamide]
- TYK2 Degradation (MOLT-4, 0.5 μM): B (B: <60% TYK2 degradation, and >20% TYK2 degradation)
- TYK2 Degradation (MOLT-4, 5 μM): A (A: ≥60% TYK2 degradation)

Compound: CNC(=O)c1nnc(NC(=O)CNC(=O)CCCOc2cc(-c3scnc3C)ccc2CNC(=O)[C@@H]2C[C@@H](O)CN2C(=O)[C@@H](NC(=O)C2(F)CC2)C(C)(C)C)cc1Nc1cccc(-c2ncn(C)n2)c1OC [CPD-103, 6-(2-(4-(2-(((2S,4R)-1-((S)-2-(1-Fluorocyclopropane-1-carboxamido)-3,3-dimethylbutanoyl)-4-hydroxypyrrolidine-2-carboxamido)methyl)-5-(4-methylthiazol-5-yl)phenoxy)butanamido)acetamido)-4-((2-methoxy-3-(1-methyl-1H-1,2,4-triazol-3-yl)phenyl)amino)-N-methylpyridazine-3-carboxamide]
- TYK2 Degradation (MOLT-4, 0.5 μM): C (C: ≤20% TYK2 degradation)
- TYK2 Degradation (MOLT-4, 5 μM): C (C: ≤20% TYK2 degradation)

Compound: CNC(=O)c1nnc(Nc2ccc(N3CCN(C(=O)CCCCC(=O)N[C@H](C(=O)N4C[C@H](O)C[C@H]4C(=O)NCc4ccc(-c5scnc5C)cc4)C(C)(C)C)CC3)cn2)cc1Nc1cccc(-c2ncn(C)n2)c1OC [CPD-098, 6-((5-(4-(6-(((S)-1-((2S,4R)-4-Hydroxy-2-((4-(4-methylthiazol-5-yl)benzyl)carbamoyl)pyrrolidin-1-yl)-3,3-dimethyl-1-oxobutan-2-yl)amino)-6-oxohexanoyl)piperazin-1-yl)pyridin-2-yl)amino)-4-((2-methoxy-3-(1-methyl-1H-1,2,4-triazol-3-yl)phenyl)amino)-N-methylpyridazine-3-carboxamide]
- TYK2 Degradation (MOLT-4, 0.5 μM): C (C: ≤20% TYK2 degradation)
- TYK2 Degradation (MOLT-4, 5 μM): C (C: ≤20% TYK2 degradation)

Compound: CNC(=O)c1nnc(NC(=O)CNC(=O)CCOCCOCCOCCOCCC(=O)N[C@H](C(=O)N2C[C@H](O)C[C@H]2C(=O)NCc2ccc(-c3scnc3C)cc2)C(C)(C)C)cc1Nc1cccc(-c2ncn(C)n2)c1OC [CPD-031, N^1—((S)-1-((2S,4R)-4-Hydroxy-2-((4-(4-methylthiazol-5-yl)benzyl)carbamoyl)pyrrolidin-1-yl)-3,3-dimethyl-1-oxobutan-2-yl)-N^16-(2-((5-((2-methoxy-3-(1-methyl-1H-1,2,4-triazol-3-yl)phenyl)amino)-6-(methylcarbamoyl)pyridazin-3-yl)amino)-2-oxoethyl)-4,7,10,13-tetraoxahexadecanediamide]
- TYK2 Degradation (0.5 μM): ≤20%
- TYK2 Degradation (5 μM): ≤20%

Compound: CNC(=O)c1nnc(NC(=O)C2CC2)cc1Nc1cccc(-c2ncn(CCNC(=O)CCOCCC(=O)N[C@H](C(=O)N3C[C@H](O)C[C@H]3C(=O)NCc3ccc(-c4scnc4C)cc3)C(C)(C)C)n2)c1OC [CPD-067, 6-(Cyclopropanecarboxamido)-4-((3-(1-(2-(3-(3-(((S)-1-((2S,4R)-4-hydroxy-2-((4-(4-methylthiazol-5-yl)benzyl)carbamoyl)pyrrolidin-1-yl)-3,3-dimethyl-1-oxobutan-2-yl)amino)-3-oxopropoxy)propanamido)ethyl)-1H-1,2,4-triazol-3-yl)-2-methoxyphenyl)amino)-N-methylpyridazine-3-carboxamide]
- TYK2 Degradation (0.5 μM): ≤20%
- TYK2 Degradation (5 μM): ≤20%

Compound: CNC(=O)c1nnc(Nc2ccc(N3CCN(C(=O)CCCCCC(=O)N[C@H](C(=O)N4C[C@H](O)C[C@H]4C(=O)NCc4ccc(-c5scnc5C)cc4)C(C)(C)C)CC3)cn2)cc1Nc1cccc(-c2ncn(C)n2)c1OC [CPD-099, 6-((5-(4-(7-(((S)-1-((2S,4R)-4-hydroxy-2-((4-(4-methylthiazol-5-yl)benzyl)carbamoyl)pyrrolidin-1-yl)-3,3-dimethyl-1-oxobutan-2-yl)amino)-7-oxoheptanoyl)piperazin-1-yl)pyridin-2-yl)amino)-4-((2-methoxy-3-(1-methyl-JH-1,2,4-triazol-3-yl)phenyl)amino)-N-methylpyridazine-3-carboxamide]
- TYK2 Degradation (MOLT-4, 0.5 μM): A (A: ≥60% TYK2 degradation)
- TYK2 Degradation (MOLT-4, 5 μM): B (B: <60% TYK2 degradation, and >20% TYK2 degradation)

Compound: CNC(=O)c1nnc(NC(=O)C2CC2)cc1Nc1cccc(-c2ncn(CCNC(=O)CCCNc3cccc4c3C(=O)N(C3CCC(=O)NC3=O)C4=O)n2)c1OC (stereo not shown) [CPD-003, 6-(Cyclopropanecarboxamido)-4-((3-(1-(2-(4-((2-(2,6-dioxopiperidin-3-yl)-1,3-dioxoisoindolin-4-yl)amino)butanamido)ethyl)-1H-1,2,4-triazol-3-yl)-2-methoxyphenyl)amino)-N-methylpyridazine-3-carboxamide]
- TYK2 Degradation (0.5 μM): ≤20%

Source: patent US20240059671A1, “TYROSINE KINASE 2 (TYK2) DEGRADATION COMPOUNDS AND METHODS OF USE” (CULLGEN (SHANGHAI), INC., priority 2020, published 2024)
